The source of these data is patent US9003693B2, “Control of zebra mussels in closed service water systems” (ASI Group Ltd., priority 2013, dated 2015).

The subject of one series is adult zebra mussels. On the procedure: Laboratory research was carried out to investigate potash for mussel control by itself or in combination with oxidizing agents such as chlorine or hydrogen peroxide.
Experiments were carried out with adult zebra mussels using potassium chloride (KCl) alone, as well as chloramine, hydrogen peroxide and combinations thereof to determine the estimated time to 95% mortality. Experimentation was carried out at 100 mg/L K^+ and test temperatures ranged from 2 to 30° C.

Another series relates to Ceriodaphnia dubia. The series is described as follows: KCl toxicity test on non-target species (EPS protocol). Format: in vivo. On the procedure:
(§1) Studies were performed to investigate the environmental effects on non-target species of treatment with concentrations of potassium effective for controlling zebra mussels. As set out below, potassium when discharged at concentrations of 100 mg/l or less is an environmentally benign method of zebra mussel control. This is an important advantage over other methods of controlling zebra mussels such as by the use of chlorine or other oxidizing agents which can result in significant non-target species toxicity.
(§2) A stock solution at 1000 mg/l KCl was used to set all tests. Dilutions were made from these stocks. Test methods were as dictated by EPS protocols for each test organism.

The test system of the next series is Fathead minnow. The description is as above. In kind it is in vivo. The procedure:
as §1, §2

The next series has as its system Rainbow trout. Described as above. In kind it is in vivo. The settings on record: acute test. On the procedure: as §1, §2
A further series relates to Daphnia magna. The series is described as above. In kind it is in vivo. The settings on record: acute test. On the procedure:
as §1, §2

For series [1], the system named is young adult (<1.5 cm) zebra mussels. The experiment in a line: Flow-through contact chamber mortality study, adult mussels. In kind it is in vivo. The settings on record: for Final mortality of adult mussels: end of the 52 day trial. On the procedure:
(§3) Mortality studies using flow through contact chambers were performed with young adult (<1.5 cm) zebra mussels and naturally occurring veliger populations at a small tributary of a canal located in southern Ontario, Canada. Water temperatures ranged between 20 and 25° C. throughout the trial.
Adult zebra mussels were exposed to three concentrations of K^+ (40 mg/l, 30 mg/l, and 20 mg/l) as well as a control chamber. Each concentration as well as the control was replicated three times. The nature of the design allowed for simultaneous trials with adults and veligers. Sixty adult mussels (six groups of ten) were exposed in each replicate test concentration and control tank. Mussels were contained in PVC mesh baskets which allowed free flow of water while maintaining the mussels in discrete groups of ten.
(§4) A concentrated potassium solution was metered into each replicate test line prior to its entering the test tanks from a pre-mixed batch tank. Potassium source was commercial grade potash which was 60% potassium by weight. The potassium concentration was controlled through differential metering rates. Flow-through trials were carried out for 52 days at which point final mortality in adults was recorded.

For series [2], the system named is naturally occurring veliger larvae. The series is described as follows: Larval settlement on PVC settling plates in flow-through tanks. Format: in vivo, zebra mussel (Dreissena polymorpha). The settings on record: 52 day trial period; for Larval (veliger) settlement: 30 mg/l K+. The procedure:
as §3
In addition to adult trials, six PVC settling plates were installed in one replicate tank at each test concentration as well as the control. The presence of naturally occurring veliger larvae in the water source provided the opportunity of determining settling rates at each test concentration.
as §4

Read-outs that look alike come from different tables or passages of the source. Marks after values point to notes of the source that are not given here. Bounds are passed on as bounds.

As for `OO` [H2O2, hydrogen peroxide], the “Estimated time (hours) to 95% mortality” value in the series on adult zebra mussels (H2O2 5 mg/L, 12-14 °C, extrapolated value) is 1714* hours; in the series on adult zebra mussels (H2O2 5 mg/L, 20-21 °C, extrapolated value) it was 455* hours; in the series with adult zebra mussels (H2O2 5 mg/L, 22-24 °C, extrapolated value) it was 294* hours; in the series on adult zebra mussels (H2O2 10 mg/L, 12-14 °C) it was 227 h; in the series with adult zebra mussels (H2O2 10 mg/L, 20-21 °C) it was 36 h; in the series with adult zebra mussels (H2O2 10 mg/L, 22-24 °C), 21 h.
One may read the IC25 as the concentration needed for an effect of 25%. As usually defined, the IC50 is the concentration that inhibits the measured activity by half. Broadly, the LC50 is the concentration lethal to half of the exposed cells or organisms. Low values mean greater toxicity, high ones lower toxicity. For `[Cl-].[K+]` [KCl, potassium chloride], the “Estimated time (hours) to 95% mortality” value was 283* hours in the series with adult zebra mussels (KCl at 100 mg/L K+, 10-12 °C, extrapolated value); 165 h in the series on adult zebra mussels (KCl at 100 mg/L K+, 12-14 °C); 113 h in the series with adult zebra mussels (KCl at 100 mg/L K+, 13-17 °C); 22 h with adult zebra mussels (KCl at 100 mg/L K+, 14-26 °C); 56 h with adult zebra mussels (KCl at 100 mg/L K+, 20-21 °C); 33* hours in the series with adult zebra mussels (KCl at 100 mg/L K+, 22-24 °C, extrapolated value). The IC25 in the series with Ceriodaphnia dubia stood at 189.3 µg/mL; in the series with Fathead minnow, 736.2 µg/mL. Besides, the IC50 amounted to 256.8 µg/mL with Ceriodaphnia dubia and 892.5 µg/mL with Fathead minnow. In addition, the LC50 stood at 219.6 µg/mL in the series with Ceriodaphnia dubia, 512.7 µg/mL in the series with Fathead minnow, 1248.4 µg/mL in the series on Rainbow trout and 188.8 µg/mL with Daphnia magna. For the same molecule, the “GROWTH/REPRODUCTIVE DATA LOEC” value in the series with Ceriodaphnia dubia (NED = no effect detected) and in the series with Fathead minnow (NED = no effect detected) was “NED” each time. Moreover, the “GROWTH/REPRODUCTIVE DATA NOEC” value in the series on Ceriodaphnia dubia (NED = no effect detected) and in the series with Fathead minnow (NED = no effect detected) was “NED” throughout. Also, the “GROWTH/REPRODUCTIVE DATA TEC” value with Ceriodaphnia dubia (NED = no effect detected) and in the series with Fathead minnow (NED = no effect detected) was “NED” in each case. Also, the “SURVIVAL DATA LOEC” value in the series with Ceriodaphnia dubia (chronic test) came out at 385 mg/L; in the series on Fathead minnow (chronic test), 603 mg/L. For the same molecule, the “SURVIVAL DATA NOEC” value with Ceriodaphnia dubia (chronic test) came out at 193 mg/L; with Fathead minnow (chronic test), 302 mg/L. Besides, the figures for the “SURVIVAL DATA TEC (threshold effect concentration)” value with Ceriodaphnia dubia (chronic test) and with Fathead minnow (chronic test) were 272.6 mg/L and 426.7 mg/L, respectively.
Consider `NCl` [chloramine], for which the “Estimated time (hours) to 95% mortality” value in the series with adult zebra mussels (chloramine 0.5 mg/L, 10-12 °C, extrapolated value) is 480* hours; in the series on adult zebra mussels (chloramine 0.5 mg/L, 14-26 °C, extrapolated value), 97* hours; in the series on adult zebra mussels (chloramine 1.0 mg/L, 10-12 °C) it was 258 h; in the series with adult zebra mussels (chloramine 1.0 mg/L, 13-17 °C), 209 h; in the series with adult zebra mussels (chloramine 1.0 mg/L, 14-26 °C), 60 h; in the series on adult zebra mussels (chloramine 2.0 mg/L, 13-17 °C), 87 h.
With `[K+]` [potassium cation], the Zebra mussel mortality in the series with adult zebra mussels (100 mg/L potassium, in 48 hours, water temperatures above 15 °C) was found to be 100%. In addition, in the series on adult zebra mussels (KCl at 100 mg/L K+, 14-26 °C), the “Estimated time (hours) to 95% mortality” value was 22 h. Moreover, the “Final mortality of adult mussels” value was determined as 73% in series [1] (20 mg/l K+, water 20-25 °C) and 91% in series [1] (30 mg/l K+, water 20-25 °C). Further, in series [1] (40 mg/L potassium, within two weeks, water temperatures above 15 °C), the “Mortality of a target population” value was “up to 100%”. The “Time to complete mortality of adult mussels” value in series [1] (40 mg/l K+, flow-through, water 20-25 °C) is not above 25 days. Besides, in series [1] (40 mg/l potassium), the “Mortality of zebra mussels over time (in words)” value is “significant mortality within two weeks and complete mortality in this trial in just over three weeks”. Besides, the “Larval (veliger) settlement” value in series [2] is “No larval settlement was detected”; in series [2] (listed as Potassium), “effective at preventing settlement of veligers”. The Larval settlement result in series [2] (40 mg/l K+) was “No larval settlement was detected”.
